Reference: ChEMBL document CHEMBL5316313, “Discovery of Novel 3-Phenylpiperidine Derivatives Targeting the β-Catenin/B-Cell Lymphoma 9 Interaction as a Single Agent and in Combination with the Anti-PD-1 Antibody for the Treatment of Colorectal Cancer” (J Med Chem, 2023)
Calls of active or inactive are those of the source. The rule behind the calls is not given here.

Assays:
[1] = target: T1, beta-catenin-B-cell lymphoma 9 protein complex (Homo sapiens, UniProt P35222); assay: Inhibition of beta-catenin/BCL9 protein-protein interaction in Wnt-independent human RKO cells assessed as reduction in Axin2 expression level by qRT-PCR assay; assay type: cell-based
T1 sequence (P35222 whole entry): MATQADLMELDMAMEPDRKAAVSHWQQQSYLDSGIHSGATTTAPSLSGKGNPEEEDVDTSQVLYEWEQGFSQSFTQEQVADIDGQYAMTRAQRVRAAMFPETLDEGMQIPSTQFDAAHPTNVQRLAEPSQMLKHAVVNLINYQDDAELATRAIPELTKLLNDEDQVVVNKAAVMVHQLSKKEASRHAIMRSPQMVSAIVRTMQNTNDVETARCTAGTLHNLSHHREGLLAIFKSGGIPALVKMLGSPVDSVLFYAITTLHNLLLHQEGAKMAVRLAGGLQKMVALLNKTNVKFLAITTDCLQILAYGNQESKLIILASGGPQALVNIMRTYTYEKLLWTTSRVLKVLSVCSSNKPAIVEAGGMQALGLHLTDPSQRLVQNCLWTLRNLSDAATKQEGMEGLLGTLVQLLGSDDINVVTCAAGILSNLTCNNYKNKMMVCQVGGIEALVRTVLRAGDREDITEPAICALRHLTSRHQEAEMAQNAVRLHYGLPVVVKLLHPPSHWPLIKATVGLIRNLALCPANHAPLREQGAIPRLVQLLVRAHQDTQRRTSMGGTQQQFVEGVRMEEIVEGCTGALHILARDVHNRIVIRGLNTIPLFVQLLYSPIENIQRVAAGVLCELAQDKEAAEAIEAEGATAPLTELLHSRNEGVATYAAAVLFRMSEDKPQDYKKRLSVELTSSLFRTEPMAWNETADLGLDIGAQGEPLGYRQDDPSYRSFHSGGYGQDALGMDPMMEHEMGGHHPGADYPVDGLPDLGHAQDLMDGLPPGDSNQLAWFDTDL
T1 sequence (O00512 whole entry): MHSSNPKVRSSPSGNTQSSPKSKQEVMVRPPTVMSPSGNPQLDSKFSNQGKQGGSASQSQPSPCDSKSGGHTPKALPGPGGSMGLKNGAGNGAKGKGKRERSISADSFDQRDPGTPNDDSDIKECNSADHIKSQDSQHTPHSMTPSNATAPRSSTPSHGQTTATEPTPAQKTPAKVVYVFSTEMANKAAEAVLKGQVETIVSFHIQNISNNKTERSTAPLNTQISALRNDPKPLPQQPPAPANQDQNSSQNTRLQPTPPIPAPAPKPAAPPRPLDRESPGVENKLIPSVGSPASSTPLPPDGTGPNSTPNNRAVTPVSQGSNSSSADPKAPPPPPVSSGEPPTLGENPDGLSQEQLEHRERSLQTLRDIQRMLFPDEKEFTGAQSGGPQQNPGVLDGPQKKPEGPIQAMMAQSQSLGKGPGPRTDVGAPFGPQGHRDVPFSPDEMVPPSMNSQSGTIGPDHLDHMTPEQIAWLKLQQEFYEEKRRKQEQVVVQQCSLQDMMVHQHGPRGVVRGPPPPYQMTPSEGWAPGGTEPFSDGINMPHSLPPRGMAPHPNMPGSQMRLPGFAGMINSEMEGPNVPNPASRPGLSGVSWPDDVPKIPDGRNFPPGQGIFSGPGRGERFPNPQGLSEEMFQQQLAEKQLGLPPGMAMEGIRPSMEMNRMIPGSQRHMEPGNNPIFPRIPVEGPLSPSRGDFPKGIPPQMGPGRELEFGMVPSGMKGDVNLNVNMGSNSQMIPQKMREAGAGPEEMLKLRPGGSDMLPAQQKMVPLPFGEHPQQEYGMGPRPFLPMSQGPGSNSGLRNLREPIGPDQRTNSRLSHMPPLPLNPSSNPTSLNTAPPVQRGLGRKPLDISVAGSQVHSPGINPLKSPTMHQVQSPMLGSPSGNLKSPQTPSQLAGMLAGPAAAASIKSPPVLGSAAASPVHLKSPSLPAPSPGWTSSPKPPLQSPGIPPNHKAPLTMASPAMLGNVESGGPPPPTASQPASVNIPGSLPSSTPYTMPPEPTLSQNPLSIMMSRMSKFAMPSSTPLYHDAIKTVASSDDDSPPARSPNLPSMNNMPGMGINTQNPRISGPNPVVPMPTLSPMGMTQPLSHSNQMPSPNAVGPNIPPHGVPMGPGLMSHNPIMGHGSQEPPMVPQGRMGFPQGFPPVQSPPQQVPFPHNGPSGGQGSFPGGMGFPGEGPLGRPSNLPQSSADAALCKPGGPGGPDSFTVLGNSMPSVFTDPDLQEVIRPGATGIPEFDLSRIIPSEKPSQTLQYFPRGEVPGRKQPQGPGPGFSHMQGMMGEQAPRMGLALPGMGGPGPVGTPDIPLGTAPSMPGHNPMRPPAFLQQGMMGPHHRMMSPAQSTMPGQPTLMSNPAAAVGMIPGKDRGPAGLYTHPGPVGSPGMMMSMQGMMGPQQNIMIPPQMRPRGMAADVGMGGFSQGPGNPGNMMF

HCT-116 [2] = assay: Cytotoxicity against Wnt-dependent human HCT-116 cells assessed as reduction in cell viability at 10 to 20 uM by LDH release assay; assay type: toxicity, cell-based; conditions: hct-116, 20 µM, dose 10-20 µM
HEK293 [3] = assay: Induction of apoptosis in Wnt-independent human HEK293 cells assessed as necrotic cells at 10 uM incubated for 24 hrs by Annexin V-Alexa Fluor 647/PI staining based flow cytomtery (Rvb=1.82%); assay type: functional
HEK293 [4] = assay: Induction of apoptosis in Wnt-independent human HEK293 cells assessed as necrotic cells at 20 uM incubated for 24 hrs by Annexin V-Alexa Fluor 647/PI staining based flow cytomtery (Rvb=1.82%); assay type: functional
HEK293 [5] = assay: Induction of apoptosis in Wnt-independent human HEK293 cells assessed as early apoptotic cells at 20 uM incubated for 24 hrs by Annexin V-Alexa Fluor 647/PI staining based flow cytomtery (Rvb=17.4%); assay type: functional
HEK293 [6] = assay: Induction of apoptosis in Wnt-independent human HEK293 cells assessed as viable cells at 20 uM incubated for 24 hrs by Annexin V-Alexa Fluor 647/PI staining based flow cytomtery (Rvb=70.5%); assay type: functional; conditions: read-out: Activity
HCT-116 [7] = assay: Induction of apoptosis in Wnt-dependent human HCT-116 cells assessed as viable cells at 10 uM incubated for 24 hrs by Annexin V-Alexa Fluor 647/PI staining based flow cytomtery (Rvb=69.5%); assay type: functional; conditions: read-out: Activity
[8] = Toxicity in BALB/c mouse xenografted with mouse CT26 cells assessed as pathological changes in liver at 30 mg/kg, ip QD by hematoxylin and eosin staining based microscopic analysis; assay type: organism-based; conditions: in vivo
CT26 [9] = assay: Synergistic antitumor activity in mouse CT26 cells xenografted in BALB/c mouse assessed as decrease in Foxp3-positive Treg cells in TIME tumor cells at 30 mg/kg, ip QD in presence of anti-PD-1 antibody cotreatment at 10 mg/kg,ip BIW by flow cytomtery; assay type: functional, organism-based
CT26 [10] = conditions: Mus musculus, BALB/c, dose 30.0 mg/kg, route ip
Description: In vivo inhibition of Wnt signaling pathway in mouse CT26 cells implanted in BALB/c mouse assessed as reduction in Axin2 mRNA expression level in tumor at 30 mg/kg, ip QD by qRT-PCR analysis

SMILES	IC50 [1]	Activity (HCT-116 [2])	Activity (HEK293 [3])	Activity (HEK293 [4])	Activity (HEK293 [5])	viability at 20 µM (HEK293 [6])	viability at 10 µM (HCT-116 [7])	Activity [8]	Activity (CT26 [9])	inhibition (CT26 [10])
O=C1[C@H](Cc2ccc(O)cc2)N2C(=O)CCN(C(=O)NCc3ccccc3)[C@H]2CN1Cc1cccc2ccccc12	26.3 µM									
CC(C)c1ccc(-c2cccc(S(=O)(=O)N3CCCC(c4cccc(OC(C)(C)C(=O)NS(=O)(=O)c5ccc(C(F)(F)F)cc5)c4)C3)c2)cc1 (stereo not given)		Non-Toxic	2.28%	1.69%	17%	64.7%	59.8%	Non-Toxic	Active	Active
